# Laboratory results reported in US6548270B1, “DNA encoding human acid-sensing ion channel BNaC4 (ASIC4)” (Ortho-McNeil Pharmaceutical, Inc., priority 2000, dated 2003).
# Experiments:
# hASIC3 = biological target: T1, hASIC3 (Homo sapiens, UniProt Q9UHC3); conditions: 100 μM amiloride, Seguela and Babinski, 1999; cited from earlier work
# T1 sequence (Q9UHC3 1-531): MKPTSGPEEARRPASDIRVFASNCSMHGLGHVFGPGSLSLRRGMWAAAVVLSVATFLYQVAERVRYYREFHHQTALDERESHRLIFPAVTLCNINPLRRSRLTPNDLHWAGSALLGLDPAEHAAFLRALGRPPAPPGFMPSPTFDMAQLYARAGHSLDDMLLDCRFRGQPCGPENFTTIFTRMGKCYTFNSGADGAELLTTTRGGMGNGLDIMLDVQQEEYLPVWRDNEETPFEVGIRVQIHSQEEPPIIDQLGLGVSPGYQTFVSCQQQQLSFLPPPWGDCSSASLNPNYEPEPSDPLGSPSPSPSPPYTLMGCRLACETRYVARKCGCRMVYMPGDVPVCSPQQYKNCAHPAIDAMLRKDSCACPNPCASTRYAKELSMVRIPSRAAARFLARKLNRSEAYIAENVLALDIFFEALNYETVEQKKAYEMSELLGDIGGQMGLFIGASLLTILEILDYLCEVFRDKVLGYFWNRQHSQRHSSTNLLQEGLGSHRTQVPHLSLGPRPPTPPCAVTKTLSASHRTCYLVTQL
# human BNaC4 = biological target: T2, human BNaC4 (Homo sapiens, UniProt Q96FT7); assay: pH 5.5-induced whole cell current in Xenopus oocytes injected with human BNaC4 cRNA (two-electrode voltage clamp); format: cell-based; conditions: 200 uM amiloride, bath application; oocytes injected with hBNaC4 cRNA; n=3
# T2 sequence (Q96FT7 1-539): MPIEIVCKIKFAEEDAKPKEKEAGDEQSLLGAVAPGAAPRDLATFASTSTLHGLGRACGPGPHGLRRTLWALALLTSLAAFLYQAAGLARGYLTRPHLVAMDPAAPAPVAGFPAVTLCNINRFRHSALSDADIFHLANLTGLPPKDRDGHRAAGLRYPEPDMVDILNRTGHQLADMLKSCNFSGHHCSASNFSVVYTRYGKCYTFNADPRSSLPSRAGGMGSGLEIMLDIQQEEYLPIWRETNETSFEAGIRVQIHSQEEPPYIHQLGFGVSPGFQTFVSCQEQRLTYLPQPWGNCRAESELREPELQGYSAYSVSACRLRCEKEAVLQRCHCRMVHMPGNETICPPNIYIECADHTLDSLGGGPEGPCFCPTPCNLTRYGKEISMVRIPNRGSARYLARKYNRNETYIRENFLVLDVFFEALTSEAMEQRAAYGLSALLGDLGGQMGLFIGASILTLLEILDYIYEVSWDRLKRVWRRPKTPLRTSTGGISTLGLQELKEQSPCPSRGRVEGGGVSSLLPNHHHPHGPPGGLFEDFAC
# Description: Xenopus laevis oocytes were prepared and injected using standard methods previously described and known in the art (Fraser et al., 1993). Ovarian lobes from adult female Xenopus laevis (Nasco, Fort Atkinson, Wis.) were teased apart, rinsed several times in nominally Ca-free saline containing: 82.5 mM NaCl, 2.5 mM KCl, 1 mM MgCl2, 5 mM HEPES, adjusted to pH 7.0 with NaOH (OR-2), and gently shaken in OR-2 containing 0.2% collagenase Type 1 (ICN Biomedicals, Aurora, Ohio) for 2-5 hours. When approximately 50% of the follicular layers were removed, Stage V and VI oocytes were selected and rinsed in media consisting of 75% OR-2 and 25% ND-96. […]
# Oocytes were injected with 50 nl of the human BNaC4 RNA (0.002-5 ng). […] Whole cell agonist (protons)-induced currents were measured 1-6 days after injection with a conventional two-electrode voltage clamp (GeneClamp50O, Axon Instruments, Foster City, Calif.) using standard methods previously described and known in the art (Dascal, Nathan (1987) The use of Xenopus oocytes for the study of ion channels. CRC Critical reviews in Biochemistry 22:317-387). […]
# Functional expression of human BNaC4 in Xenopus oocytes is shown: activation by pH 5.5. […] The oocyte was recorded 3 days after injection of 2 ng hBNaC CRNA. […] The BNaC4 oocytes tested produced currents of at least +60 nA (measured at +80 mV at the end of a voltage ramp protocol) (range +60 to +1240 nA). […]
smiles,measurement,setting,value
N=C(N)NC(=O)c1nc(Cl)c(N)nc1N [amiloride],decrease of sustained current,hASIC3,sustained current by ˜30%; fast
same,block of the pH5.5-induced fast increase in conductance,human BNaC4,40+/−13%
